Results: article PMC12320299 (Chemical Science, 2025)

Assays:
SW480 cancer cells = test: Proteome profiling of compound-treated SW480 cancer cells (24 h, approx. IC50, CYT and NE fractions); format: cell-based, human
Experimental: To gain insight into potential modes of action and derive structure–activity relationships on a molecular level, proteomic profiling experiments were carried out based on label-free quantification (LFQ) by nano-liquid chromatography tandem mass spectrometry (nLC-MS/MS). […] Six replicates were used per condition. The perturbations were evaluated at subcellular resolution by fractionating cells into cytoplasmic (CYT) and nuclear (NE) protein fractions. Those have been separately proteolytically digested and analysed (Fig. 3A). The perturbations with the 3-Et-NQ and 3-Morph-NQ complexes were performed against their respective solvent-treated controls (CON), yielding a total of 72 samples. […] Statistical significance of individual protein regulations was calculated by multiple testing-corrected P-values based on 5% false discovery rate (FDR = 0.05 and S0 = 0.1).
The position of each group represents the summed fold-changes of the individual proteins in the group according to the subcellular space, i.e., CYT and NE fractions, while the size represents the number of proteins in each group. […]
Proteome profiling of compound-treated SW480 cancer cells […]
cells per well and left to adhere in complete cell culture medium. After 24 h, the medium was exchanged with fresh complete medium (DMSO mock control) or fresh medium containing […]
solution in DMSO, respectively) and incubated for another 24 h. Each condition was carried out in hexuplicates. The cells were processed according to a nucleocytoplasmic fractionation protocol as previously described.3 All steps were performed on ice. The medium was removed, and the cells were washed twice with 1×PBS (phosphate buffered saline, 3 mL). Then, PBS was thoroughly removed. Isotonic lysis buffer (10 mM HEPES, 10 mM NaCl, 3.5 mM MgCl2, 1 mM EGTA, 0.25 M Sucrose, 0.5% Triton X-100) containing protease inhibitors (1% PMSF, Sigma, and 1% protease and phosphatase inhibitor cocktail, Roche) was added to the flasks, the cells were scraped off and transferred into labelled 15 mL Falcon tubes. The cellular membrane was ruptured using shear stress by pressing the cell suspension through a syringe 9–12 times. Membrane rupture with intact nuclei was monitored under a microscope. After centrifugation (960 g, 5 min), the supernatant containing the cytoplasmic (CYT) proteins was transferred into new tubes containing ice-cold ethanol (1 : 5, HPLC grade) and precipitated […]
overnight at –20 °C. The pellet containing the nuclei was incubated with a hypertonic solution (10 mM Tris-HCl, 1 mM EDTA and 0.5 M NaCl) and subsequently diluted 1:10 with NP-40 buffer (10 mm Tris-HCl, 1 mm EDTA and 0.5% Triton X-100) containing protease inhibitors (1% PMSF, Sigma, and 1% protease and phosphatase inhibitor cocktail, Roche). After centrifugation (960 g, 5 min), the soluble nuclear (NE) proteins were also transferred into new tubes containing ice-cold ethanol (1 : 5, HPLC grade) and precipitated overnight at –20 °C.
The precipitated proteins were finally pelleted by centrifugation (5000 g, 30 min, 4 °C), the solution was decanted and the pellet dried under vacuum.

CH1/PA-1 = tested on: CH1/PA-1; parameters: method as in Ref. 1 (ESI); conditions: 96 h incubation; ref Ref. 1 (ESI); cited from earlier work
SW480 = tested on: SW480; parameters: method as in earlier work; conditions: 96 h incubation; ref 48 (ESI Ref. 1); cited from earlier work
[1] = cytoplasmic fraction, FDR = 0.05, S0 = 0.1
[2] = nuclear fraction, FDR = 0.05, S0 = 0.1

Question: With `Cc1ccc(C(C)C)cc1.O=C1C(CN2CCOCC2)=C2[O][Ru][O]C2(n2cccn2)c2ccccc21` (stereo not drawn) [Compound 1b] as the compound, how does the “GO BP DNA damage response, summed fold-changes” value (SW480 cancer cells; NE fraction) read?
Answer: 22.6

Question: What about the “GO BP DNA repair, summed fold-changes” value (SW480 cancer cells; NE fraction) of the same compound?
Answer: 35.2

Question: What about the “GO BP DNA replication, summed fold-changes” value (SW480 cancer cells; NE fraction) of the same compound?
Answer: 6.1

Question: And the “GO BP Intracellular protein transport, summed fold-changes” value (SW480 cancer cells; NE fraction)?
Answer: -31.2

Question: And the “GO BP Mitotic cytokinesis, summed fold-changes” value (SW480 cancer cells; NE fraction)?
Answer: 4.0

Question: What about the “GO BP Negative regulation of DNA-templated transcription, summed fold-changes” value (SW480 cancer cells; NE fraction) of the same compound?
Answer: 65.6

Question: What about the “GO BP Nucleocytoplasmic transport, summed fold-changes” value (SW480 cancer cells; NE fraction) of the same compound?
Answer: 26.1

Question: And the “GO BP Positive regulation of DNA-templated transcription, summed fold-changes” value (SW480 cancer cells; NE fraction)?
Answer: 71.8

Question: And the “GO BP Proteasome-mediated ubiquitin-dependent protein catabolic process, summed fold-changes” value (SW480 cancer cells; NE fraction)?
Answer: 26.0

Question: What about the “GO BP Protein folding, summed fold-changes” value (SW480 cancer cells; NE fraction) of the same compound?
Answer: -27.7

Question: And the “GO BP Protein stabilization, summed fold-changes” value (SW480 cancer cells; NE fraction)?
Answer: -4.7

Question: What about the “GO BP Protein transport, summed fold-changes” value (SW480 cancer cells; NE fraction) of the same compound?
Answer: -9.8

Question: And the “GO BP Purine nucleotide biosynthetic process, summed fold-changes” value (SW480 cancer cells; NE fraction)?
Answer: -7.4

Question: And the “GO BP RNA splicing, summed fold-changes” value (SW480 cancer cells; NE fraction)?
Answer: 29.0

Question: What about the “GO BP Regulation of apoptotic process, summed fold-changes” value (SW480 cancer cells; NE fraction) of the same compound?
Answer: 4.6

Question: What about the “GO BP Regulation of cell fate specification, summed fold-changes” value (SW480 cancer cells; NE fraction) of the same compound?
Answer: 10.8

Question: And the “GO BP Regulation of double-strand break repair, summed fold-changes” value (SW480 cancer cells; NE fraction)?
Answer: 14.0

Question: And the “GO BP Regulation of stem cell differentiation, summed fold-changes” value (SW480 cancer cells; NE fraction)?
Answer: 12.8

Question: What about the “GO BP Response to oxidative stress, summed fold-changes” value (SW480 cancer cells; NE fraction) of the same compound?
Answer: -22.0

Question: What about the “GO BP Ribosomal small subunit biogenesis, summed fold-changes” value (SW480 cancer cells; NE fraction) of the same compound?
Answer: 25.3

Question: And the “GO BP Ribosome biogenesis, summed fold-changes” value (SW480 cancer cells; NE fraction)?
Answer: 6.9

Question: What about the “GO BP Ubiquitin-dependent protein catabolic process, summed fold-changes” value (SW480 cancer cells; NE fraction) of the same compound?
Answer: 4.9

Question: What about the “GO BP Vesicle-mediated transport, summed fold-changes” value (SW480 cancer cells; NE fraction) of the same compound?
Answer: -26.9

Question: And the “GO BP mRNA processing, summed fold-changes” value (SW480 cancer cells; NE fraction)?
Answer: 25.4

Question: And the “GO BP mRNA splicing, via spliceosome, summed fold-changes” value (SW480 cancer cells; NE fraction)?
Answer: 37.9

Question: What about the “GO BP mRNA transport, summed fold-changes” value (SW480 cancer cells; NE fraction) of the same compound?
Answer: 17.5

Question: What about the “GO BP rRNA processing, summed fold-changes” value (SW480 cancer cells; NE fraction) of the same compound?
Answer: 40.4

Question: And the “GO CC Azurophil granule lumen, summed fold-changes” value (SW480 cancer cells; NE fraction)?
Answer: -24.9

Question: What about the “GO CC Chromatin, summed fold-changes” value (SW480 cancer cells; NE fraction) of the same compound?
Answer: 92.4

Question: And the “GO CC Chromosome, centromeric region, summed fold-changes” value (SW480 cancer cells; NE fraction)?
Answer: 9.3

Question: And the “GO CC Chromosome, summed fold-changes” value (SW480 cancer cells; NE fraction)?
Answer: 28.8

Question: What about the “GO CC Chromosome, telomeric region, summed fold-changes” value (SW480 cancer cells; NE fraction) of the same compound?
Answer: 30.4

Question: What about the “GO CC Condensin complex, summed fold-changes” value (SW480 cancer cells; NE fraction) of the same compound?
Answer: 1.4

Question: And the “GO CC Cytoskeleton, summed fold-changes” value (SW480 cancer cells; NE fraction)?
Answer: -23.7

Question: What about the “GO CC Endosome, summed fold-changes” value (SW480 cancer cells; NE fraction) of the same compound?
Answer: -21.5

Question: And the “GO CC Extracellular exosome, summed fold-changes” value (SW480 cancer cells; NE fraction)?
Answer: -325.4

Question: What about the “GO CC Fibrillar center, summed fold-changes” value (SW480 cancer cells; NE fraction) of the same compound?
Answer: 22.1

Question: And the “GO CC Ficolin-1-rich granule lumen, summed fold-changes” value (SW480 cancer cells; NE fraction)?
Answer: -29.3

Question: And the “GO CC Focal adhesion, summed fold-changes” value (SW480 cancer cells; NE fraction)?
Answer: -55.9

Question: What about the “GO CC Intracellular membrane-bounded organelle, summed fold-changes” value (SW480 cancer cells; NE fraction) of the same compound?
Answer: -21.7

Question: And the “GO CC Kinetochore, summed fold-changes” value (SW480 cancer cells; NE fraction)?
Answer: 23.6

Question: What about the “GO CC Lipid droplet, summed fold-changes” value (SW480 cancer cells; NE fraction) of the same compound?
Answer: -14.4

Question: And the “GO CC Lysosome, summed fold-changes” value (SW480 cancer cells; NE fraction)?
Answer: -44.7

Question: And the “GO CC Microtubule cytoskeleton, summed fold-changes” value (SW480 cancer cells; NE fraction)?
Answer: -18.2

Question: What about the “GO CC Mitochondrion, summed fold-changes” value (SW480 cancer cells; NE fraction) of the same compound?
Answer: -134.2

Question: What about the “GO CC Nuclear envelope, summed fold-changes” value (SW480 cancer cells; NE fraction) of the same compound?
Answer: 21.5

Question: What about the “GO CC Nuclear speck, summed fold-changes” value (SW480 cancer cells; NE fraction) of the same compound?
Answer: 55.6

Question: And the “GO CC Nucleolus, summed fold-changes” value (SW480 cancer cells; NE fraction)?
Answer: 104.6

Question: And the “GO CC Nucleoplasm, summed fold-changes” value (SW480 cancer cells; NE fraction)?
Answer: 270.4

Question: And the “GO CC Nucleus, summed fold-changes” value (SW480 cancer cells; NE fraction)?
Answer: 135.2

Question: What about the “GO CC Proteasome complex, summed fold-changes” value (SW480 cancer cells; NE fraction) of the same compound?
Answer: 12.2

Question: What about the “GO CC Protein-containing complex, summed fold-changes” value (SW480 cancer cells; NE fraction) of the same compound?
Answer: -21.9

Question: What about the “GO CC Ribonucleoprotein complex, summed fold-changes” value (SW480 cancer cells; NE fraction) of the same compound?
Answer: 3.5

Question: What about the “GO CC SCAR complex, summed fold-changes” value (SW480 cancer cells; NE fraction) of the same compound?
Answer: -6.0

Question: And the “GO CC Small-subunit processome, summed fold-changes” value (SW480 cancer cells; NE fraction)?
Answer: 29.5

Question: And the “GO CC Spliceosomal complex, summed fold-changes” value (SW480 cancer cells; NE fraction)?
Answer: 22.0

Question: And the “GO CC Transcription repressor complex, summed fold-changes” value (SW480 cancer cells; NE fraction)?
Answer: 12.8

Question: What about the “GO CC Vesicle, summed fold-changes” value (SW480 cancer cells; NE fraction) of the same compound?
Answer: -24.1

Question: What about the “KEGG pathway ATP-dependent chromatin remodeling, summed fold-changes” value (SW480 cancer cells; NE fraction) of the same compound?
Answer: 35.8

Question: And the “KEGG pathway Apoptosis, summed fold-changes” value (SW480 cancer cells; NE fraction)?
Answer: -20.6

Question: What about the “KEGG pathway Basal transcription factors, summed fold-changes” value (SW480 cancer cells; NE fraction) of the same compound?
Answer: 10.6

Question: What about the “KEGG pathway Biosynthesis of amino acids, summed fold-changes” value (SW480 cancer cells; NE fraction) of the same compound?
Answer: -32.4

Question: And the “KEGG pathway Biosynthesis of cofactors, summed fold-changes” value (SW480 cancer cells; NE fraction)?
Answer: -31.7

Question: And the “KEGG pathway Cell cycle, summed fold-changes” value (SW480 cancer cells; NE fraction)?
Answer: 19.2

Question: And the “KEGG pathway Nucleocytoplasmic transport, summed fold-changes” value (SW480 cancer cells; NE fraction)?
Answer: 34.5

Question: What about the “KEGG pathway Polycomb repressive complex, summed fold-changes” value (SW480 cancer cells; NE fraction) of the same compound?
Answer: 17.0

Question: And the “KEGG pathway Proteasome, summed fold-changes” value (SW480 cancer cells; NE fraction)?
Answer: 16.8

Question: What about the “KEGG pathway Ribosome biogenesis in eukaryotes, summed fold-changes” value (SW480 cancer cells; NE fraction) of the same compound?
Answer: 28.9

Question: And the “N° proteins down-regulated, CYT” value (SW480 cancer cells; [1])?
Answer: 8

Question: What about the “N° proteins upregulated, CYT” value (SW480 cancer cells; [1]) of the same compound?
Answer: 8

Question: What about the “N° proteins down-regulated, NE” value (SW480 cancer cells; [2]) of the same compound?
Answer: 772

Question: What about the “N° proteins upregulated, NE” value (SW480 cancer cells; [2]) of the same compound?
Answer: 710

Question: And the “regulated proteins in CYT” value (SW480 cancer cells; up- and down-regulated)?
Answer: 16

Question: What about the IC50 (CH1/PA-1) of the same compound?
Answer: 150 ± 20 µM

Question: And the IC50 (SW480)?
Answer: 33 ± 2 µM
